Experimental data as given in patent US11878973B2, “Bicyclic compounds and their uses” (NOVARTIS AG, priority 2021, dated 2024).
Read-outs that look alike come from different tables or passages of the source.

Experiments:
WRN helicase = WRN helicase (Homo sapiens (Human), UniProt Q14191); test: In vitro enzymatic activity assay on WRN helicase (DNA dependent ATPase assay, ADP-Glo); format: biochemical
Text: An ATPase assay was set up to measure the DNA dependent ATP hydrolysis activity of WRN helicase. This assay was used also to assess the inhibition properties of compounds of the invention on DNA dependent WRN ATPase activity.
The core helicase motif of the WRN protein (aa N517-P1238) was produced for this assay (protein production as described above). […] The ADP-Glo assay kit (Promega, Madison, WI) allowing the quantification of ADP produced in ATP hydrolysis reactions was used for setting up this assay.
Time course experiments were first performed in order to determine the best enzymatic assay conditions (including buffer conditions, reaction time and concentrations of protein, ATP and DNA substrates). A typical reaction consists of 10 nM WRN protein, 0.2 nM FLAP26, and 300 micromolar ATP in the following assay buffer: 30 mM Tris pH7.5, 2 mM MgCl2, 0.02% BSA, 50 mM NaCl, 0.1% pluronic F127 prepared in DNAse free water. To evaluate the inhibition properties of compounds of the invention, serial dilutions were prepared in DMSO (10 half log dilutions from a 10 mM DMSO solution). […] The reaction was started by addition of 2.5 microliters of FLAP26 at 0.4 nM and incubated for 30 minutes at room temperature. The reaction was stopped with the addition of 5 microliters of the first ADP-Glo reagent and incubated for one hour to remove the excess amount of ATP. Afterwards, 10 microliters of ATP detection reagent was added and incubated for an additional hour before reading. Luminescence output was recorded using Tecan 1000 reader, with 5 minutes delay before reading. Each concentration of compound was tested in duplicates in the assay plate.
Following normalization of activity values for the wells to % inhibition (% inhibition=[(high control-sample)/(high control-low control)]×100), IC50 fitting was carried out from the duplicate determinations present on each plate according to [4]. Data analysis can also be carried out using commercially available software designed to derive IC50 values using 4-parameter fits (e.g. GraphPad Prism, XL fit). The reported IC50 values are the geometrical means of at least 2 independent replicates.

SW48 cells = test: Proliferation assay SW48 (CellTiterGlo, 96 hours); settings: Homo sapiens
DLD1-WRN-KO cells = test: Proliferation assay DLD1-WRN-KO (CellTiterGlo, 96 hours; off-target effects); settings: Homo sapiens
Method: The WRN-knockdown insensitive colon carcinoma cell line DLD-1 (RRID: CVCL_0248) was obtained from the Korean Cell Line Bank (KCLB), and used to generate a derivative in which the endogenous WRN gene copies were knocked out by CRISPR-mediated editing using standard CRISPR methods. The resulting cell line, DLD1-WRN—KO, was used to assess potential off-target compound effects.
All cells were maintained at 37° C. in a humidified 5% CO2 incubator.
For data analysis, the assay background signal that was determined in wells containing medium, but no cells, was subtracted from all other data points prior to further calculations. The extent of growth inhibition and potential cell kill was assessed by comparing the ATP levels (measured using CellTiterGlo, Promega) in compound-treated cells with those present at the time of compound addition. […] 100%, 0% and −100% signify absence of growth inhibition, growth stasis, and complete cell kill, respectively. Compound concentrations leading to half-maximal growth inhibition (G150) and residual cell viability at the highest tested compound concentration (Data (cmax), expressed in percent) were routinely calculated. Data analysis can also be carried out using commercially available software designed to derive IC50 values using 4-parameter fits (e.g. GraphPad Prism, XL fit). The reported GI50 values are the geometrical means of at least 2 independent replicates.

[1] = geometric means of at least 2 determinations, read-out: WRN ATPase Activity (IC50)
[2] = SW48, read-out: Proliferation Assay SW48 (GI50)
[3] = read-out: Proliferation Assay DLD1-WRN-KO (GI50)

Chain of WRN helicase (Q14191 517-1238): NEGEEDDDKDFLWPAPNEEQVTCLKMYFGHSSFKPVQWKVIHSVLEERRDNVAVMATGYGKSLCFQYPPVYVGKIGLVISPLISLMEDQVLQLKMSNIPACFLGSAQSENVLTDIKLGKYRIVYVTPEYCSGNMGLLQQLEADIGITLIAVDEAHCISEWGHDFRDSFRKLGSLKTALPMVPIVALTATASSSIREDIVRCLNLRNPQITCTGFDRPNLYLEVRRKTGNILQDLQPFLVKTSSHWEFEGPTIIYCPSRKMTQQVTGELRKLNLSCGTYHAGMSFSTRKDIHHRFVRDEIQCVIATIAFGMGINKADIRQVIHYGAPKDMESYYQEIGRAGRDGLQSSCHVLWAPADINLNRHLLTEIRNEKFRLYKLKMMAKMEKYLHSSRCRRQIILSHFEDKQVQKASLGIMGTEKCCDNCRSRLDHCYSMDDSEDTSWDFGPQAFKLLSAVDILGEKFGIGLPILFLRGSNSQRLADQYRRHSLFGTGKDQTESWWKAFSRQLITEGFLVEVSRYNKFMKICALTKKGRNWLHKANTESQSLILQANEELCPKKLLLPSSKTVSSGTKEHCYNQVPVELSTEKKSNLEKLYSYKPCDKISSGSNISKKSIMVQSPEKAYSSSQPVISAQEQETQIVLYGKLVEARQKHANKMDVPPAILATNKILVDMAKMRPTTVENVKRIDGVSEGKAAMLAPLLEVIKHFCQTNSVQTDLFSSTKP

IC50 (WRN helicase; [1]) | GI50 (SW48 cells; [2]) | GI50 (DLD1-WRN-KO cells; [3]) | IC50 (WRN helicase; read-out: WRN ATPase inhibition (IC50)) | GI50 (SW48 cells; SW48, read-out: proliferation GI50 in SW48, as stated in text) | GI50 (DLD1-WRN-KO cells; DLD-1, read-out: proliferation GI50 in DLD1 WRN-KO) | Structure (SMILES)
110 nM | 380 nM | > 10000 nM |  |  |  | CCc1c(N2CCN(C(=O)c3ncccc3O)CC2)c(=O)n2nc(N3CCOCC3)nc2n1CC(=O)Nc1ccc(C(F)(F)F)cc1F [Example 11, 2-(5-ethyl-6-(4-(3-hydroxypicolinoyl)piperazin-1-yl)-2-morpholino-7-oxo-[1,2,4]triazolo[1,5-a]pyrimidin-4(7H)-yl)-N-(2-fluoro-4-(trifluoromethyl)phenyl)acetamide]
40 nM | 170 nM | > 10000 nM |  |  |  | Cc1c(N2CCN(C(=O)c3ncccc3O)[C@H](C)C2)c(=O)n2nc(C3=CCOCC3)nc2n1CC(=O)Nc1ccc(C(F)(F)F)cc1 [Example 89, (R)-2-(2-(3,6-dihydro-2H-pyran-4-yl)-6-(4-(3-hydroxypicolinoyl)-3-methylpiperazin-1-yl)-5-methyl-7-oxo-[1,2,4]triazolo[1,5-a]pyrimidin-4(7H)-yl)-N-(4-(trifluoromethyl)phenyl)acetamide]
360 nM | 390 nM | > 10000 nM |  |  |  | CCc1c(N2CCN(C(=O)c3ncnc(C)c3O)[C@@H]3CC[C@H]32)c(=O)n2nc(C3=CCOCC3)nc2n1CC(=O)Nc1ccc(C(F)(F)F)cc1Cl [Example 124, N-(2-chloro-4-(trifluoromethyl)phenyl)-2-(2-(3,6-dihydro-2H-pyran-4-yl)-5-ethyl-6-((1R,6R)-5-(5-hydroxy-6-methylpyrimidine-4-carbonyl)-2,5-diazabicyclo[4.2.0]octan-2-yl)-7-oxo-[1,2,4]triazolo[1,5-a]pyrimidin-4(7H)-yl)acetamide]
50 nM | 130 nM | > 10000 nM |  |  |  | CCc1c(N2CCN(C(=O)c3ncccc3O)CC2)c(=O)n2nc(C3=CCCCO3)nc2n1CC(=O)Nc1ccc(C(F)(F)F)cc1 [Example 84, 2-(2-(3,4-dihydro-2H-pyran-6-yl)-5-ethyl-6-(4-(3-hydroxypicolinoyl)piperazin-1-yl)-7-oxo-[1,2,4]triazolo[1,5-a]pyrimidin-4(7H)-yl)-N-(4-(trifluoromethyl)phenyl)acetamide]
40 nM | 500 nM | > 10000 nM |  |  |  | CCc1c(N2CCN(C(=O)c3nccc(Cl)c3O)CC2)c(=O)n2nc(C3=COCCO3)nc2n1CC(=O)Nc1ccc(C(F)(F)F)c(F)c1C [Example 79, 2-(6-(4-(4-chloro-3-hydroxypicolinoyl)piperazin-1-yl)-2-(5,6-dihydro-1,4-dioxin-2-yl)-5-ethyl-7-oxo-[1,2,4]triazolo[1,5-a]pyrimidin-4(7H)-yl)-N-(3-fluoro-2-methyl-4-(trifluoromethyl)phenyl)acetamide]
60 nM | 60 nM | 7600 nM |  |  |  | CCc1c(N2CCN(C(=O)c3ncccc3O)CC2)c(=O)n2nc(C3=CCCCO3)nc2n1CC(=O)Nc1ccc(C(F)(F)F)cc1Cl [Example 32, N-(2-chloro-4-(trifluoromethyl)phenyl)-2-(2-(3,4-dihydro-2H-pyran-6-yl)-5-ethyl-6-(4-(3-hydroxypicolinoyl)piperazin-1-yl)-7-oxo-[1,2,4]triazolo[1,5-a]pyrimidin-4(7H)-yl)acetamide]
60 nM | 30 nM | > 10000 nM |  |  |  | CCc1c(N2CCN(C(=O)c3ncnc(C)c3O)CC2)c(=O)n2nc(C3=CCOCC3)nc2n1CC(=O)Nc1ccc(S(F)(F)(F)(F)F)cc1C [Example 100, 2-(2-(3,6-dihydro-2H-pyran-4-yl)-5-ethyl-6-(4-(5-hydroxy-6-methylpyrimidine-4-carbonyl)piperazin-1-yl)-7-oxo-[1,2,4]triazolo[1,5-a]pyrimidin-4(7H)-yl)-N-(2-methyl-4-(pentafluorosulfanyl)phenyl)acetamide]
230 nM | 320 nM | > 10000 nM |  |  |  | CCc1c(N2CCN(C(=O)c3ncnc(C)c3O)CC2)c(=O)n2nc(C3=CCCCO3)nc2n1CC(=O)Nc1ccc(C(F)(F)F)nc1C [Example 31, 2-(2-(3,4-dihydro-2H-pyran-6-yl)-5-ethyl-6-(4-(5-hydroxy-6-methylpyrimidine-4-carbonyl)piperazin-1-yl)-7-oxo-[1,2,4]triazolo[1,5-a]pyrimidin-4(7H)-yl)-N-(2-methyl-6-(trifluoromethyl)pyridin-3-yl)acetamide]
70 nM | 60 nM | > 10000 nM |  |  |  | CCc1c(N2CCN(C(=O)c3ncccc3O)[C@H](C)C2)c(=O)n2nc(C3=CCOCC3)nc2n1CC(=O)Nc1ccc(C(F)(F)F)cc1 [Example 71, (R)-2-(2-(3,6-dihydro-2H-pyran-4-yl)-5-ethyl-6-(4-(3-hydroxypicolinoyl)-3-methylpiperazin-1-yl)-7-oxo-[1,2,4]triazolo[1,5-a]pyrimidin-4(7H)-yl)-N-(4-(trifluoromethyl)phenyl)acetamide]
240 nM | 880 nM | > 10000 nM |  |  |  | CCc1c(N2CCN(C(=O)c3ncccc3O)CC2)c(=O)n2nc(C3=CC(=O)OCC3)nc2n1CC(=O)Nc1ccc(C(F)(F)F)cc1C [Example 60, 2-(5-ethyl-6-(4-(3-hydroxypicolinoyl)piperazin-1-yl)-7-oxo-2-(6-oxo-3,6-dihydro-2H-pyran-4-yl)-[1,2,4]triazolo[1,5-a]pyrimidin-4(7H)-yl)-N-(2-methyl-4-(trifluoromethyl)phenyl)acetamide]
60 nM | 210 nM | > 10000 nM |  |  |  | O=C(Cn1c(C2CC2)c(N2CCN(C(=O)c3ncccc3O)CC2)c(=O)n2nc(C3=CCOCC3)nc12)Nc1ccc(C(F)(F)F)cc1 [Example 134, 2-(5-cyclopropyl-2-(3,6-dihydro-2H-pyran-4-yl)-6-(4-(3-hydroxypicolinoyl)piperazin-1-yl)-7-oxo-[1,2,4]triazolo[1,5-a]pyrimidin-4(7H)-yl)-N-(4-(trifluoromethyl)phenyl)acetamide]
70 nM | 200 nM | > 10000 nM |  |  |  | CCc1c(N2CCN(C(=O)c3ncnc(C)c3O)CC2)c(=O)n2nc(C3=CCOCC3)nc2n1CC(=O)Nc1ccc(C(F)(F)F)cc1 [Example 73, 2-(2-(3,6-dihydro-2H-pyran-4-yl)-5-ethyl-6-(4-(5-hydroxy-6-methylpyrimidine-4-carbonyl)piperazin-1-yl)-7-oxo-[1,2,4]triazolo[1,5-a]pyrimidin-4(7H)-yl)-N-(4-(trifluoromethyl)phenyl)acetamide]
930 nM | 1780 nM | > 10000 nM |  |  |  | CCc1c(N2CCN(C(=O)c3nccc(Cl)c3O)CC2)c(=O)n2nc(C3=CCOCC3)nc2n1CC(=O)Nc1ccc(C(F)(F)F)nc1C [Example 36, 2-(6-(4-(4-chloro-3-hydroxypicolinoyl)piperazin-1-yl)-2-(3,6-dihydro-2H-pyran-4-yl)-5-ethyl-7-oxo-[1,2,4]triazolo[1,5-a]pyrimidin-4(7H)-yl)-N-(2-methyl-6-(trifluoromethyl)pyridin-3-yl)acetamide]
50 nM | 50 nM | > 10000 nM | 50 nM | 50 nM | > 10000 nM | CCc1c(N2CCN(C(=O)c3nccc(Cl)c3O)CC2)c(=O)n2nc(N3CCOCC3)nc2n1CC(=O)Nc1ccc(C(F)(F)F)cc1Cl [Example 1, 2-(6-(4-(4-chloro-3-hydroxypicolinoyl)piperazin-1-yl)-5-ethyl-2-morpholino-7-oxo-[1,2,4]triazolo[1,5-a]pyrimidin-4(7H)-yl)-N-(2-chloro-4-(trifluoromethyl)phenyl)acetamide]
80 nM | 70 nM | > 10000 nM |  |  |  | CCc1c(N2CCN(C(=O)c3ncc(C)c(F)c3O)CC2)c(=O)n2nc(C3=CCOCC3)nc2n1CC(=O)Nc1ccc(C(F)(F)F)cc1Cl [Example 97, N-(2-chloro-4-(trifluoromethyl)phenyl)-2-(2-(3,6-dihydro-2H-pyran-4-yl)-5-ethyl-6-(4-(4-fluoro-3-hydroxy-5-methylpicolinoyl)piperazin-1-yl)-7-oxo-[1,2,4]triazolo[1,5-a]pyrimidin-4(7H)-yl)acetamide]
70 nM | 90 nM | > 10000 nM |  |  |  | CCc1c(N2CCN(C(=O)c3nccc(F)c3O)CC2)c(=O)n2nc(N3CCOCC3)nc2n1CC(=O)Nc1ccc(C(F)(F)F)cc1Cl [Example 3, N-(2-chloro-4-(trifluoromethyl)phenyl)-2-(5-ethyl-6-(4-(4-fluoro-3-hydroxypicolinoyl)piperazin-1-yl)-2-morpholino-7-oxo-[1,2,4]triazolo[1,5-a]pyrimidin-4(7H)-yl)acetamide]
